Results on 1 molecule are retold here after patent US20220054494A1, “METHODS FOR TREATING BLADDER AND URETHRA DYSFUNCTION AND DISEASE” (University of Pittsburgh - Of the Commonwealth System of …, priority 2019, published 2022).

“Also recorded” adds a separate entry of the source.

Holding throughout (type): in vivo, rat
Assay [1] deals with CYP-treated rats. Kind of assay: Abdominal mechanical pain threshold (Von Frey) in CYP cystitis model. The note with it: CYP (75 mg/kg i.p.) female Sprague Dawley rats; oral 8-AG 5 mg/kg for 1 week prior to CYP. Here is the method: (§1) Animals: Female Sprague Dawley rats were employed in this example (Charles River; Wilmington, Mass.). Three groups of animals were included. Group 1 received an i.p. injection of saline and was used as a control; groups 2 and 3 received an i.p. injection of cyclophosphamide (CYP, SIGMA-ALDRICH®, St Louis, Mo., day 0, 3, 6, sacrifice day 8, 75 mg/kg, i.p.) with group 3 treated with oral 8-AG (5 mg/kg/day; starting one week prior to CYP). CYP induced bladder inflammation and is a well-established pre-clinical model for BPS/IC.
Determination of mechanical pain threshold: Lower abdominal pain was evaluated using a mechanical hyperalgesia and allodynia test (Larid et al., Pain, 92:335-342, 2001; Minnet et al., PLoS One, 9:e104458, 2014). Briefly, animals were placed in individual chambers with a wire mesh floor and allowed to acclimate. This Von Frey test was performed in the lower abdomen and consists of delivering a constant pre-determined force with one of a series of Von Frey monofilaments (from 0.08 to 19.6 mN; Stoelting Co., Wood Dale, Ill., USA). Filaments were applied perpendicularly with enough strength to cause the monofilament to slightly bend. Each monofilament was tested five times, 5 s interval between each application. […]

The test system of assay [2] is CYP-treated rats. Description: Voiding analysis in cyclophosphamide (CYP) cystitis model. The note with it: CYP (75 mg/kg i.p.) female Sprague Dawley rats; oral 8-AG 5 mg/kg/day starting one week prior to CYP. As to the method:
as §1
Voiding Analysis: Untreated, CYP-treated, and 8-AG-treated CYP rats were placed in metabolic cages (24 hr; once per week) for the duration of the study. The light cycle was from 7:00 AM to 7:00 PM, and food and water were provided ad libitum. […] Data were averaged for 24 h and analyzed for 12-h periods during the day (7:00 AM-7:00 PM) and night (7:00 PM-7:00 AM). Voiding frequency, total voided volume, and volume per void were analyzed. Voiding frequency was calculated as the number of voiding events per hour during 24 hr and during the 12-hr day and 12-hr night periods. Volume per void, which defines bladder capacity, was calculated as an average of the voids occurring during these periods.

The subject of another assay is aged rats. Kind of assay: Voiding analysis in metabolic cages, aged rats. Here is the method: Experimental design: Young (3 months of age) and aged (25 to 30 months of age) Fisher 344 rats were used in these experiments. Some of the aged Fisher 344 rats were treated with 8-AG (5 mg kg/day via drinking water) for 1 month.
Voiding analysis: Rats were placed in metabolic cages for 24 hr (once per week for the duration of the study). Voided urine was collected in cups attached to force displacement transducers (GRASS TECHNOLOGIES®, Warwick, R.I.) connected to a computer running WINDAQ™ data acquisition software (DATAQ™ Instruments Inc., Akron, Ohio). Data were averaged for 24 h, and voiding frequency, total voided volume, and volume per void were analyzed. Voiding frequency was calculated as the number of voiding events per hour during 24 h, and volume per void, which defines bladder capacity, was calculated as an average of the voids occurring during these periods.
Animals: Male and female Fisher 344 rats were employed (Charles River; Wilmington, Mass. and the NIA rodent colony). Some rats were young (3 months of age), some were aged (25-30 months of age), and others were aged and treated with oral 8-AG (5 mg/kg/day; 6 weeks). Under isoflurane anesthesia and using an aseptic technique, an incision was made into the lower abdomen and in the scapular area. Sterile PE50 tubing was threaded subcutaneously from the lower abdomen to the scapular area and connected to a one-channel vascular access button (Intech Laboratories, Plymouth Meeting, Pa.). In the abdomen, the tubing was inserted into the bladder and secured with a small purse-string suture. The incisions were closed, and the animals were allowed to recover for 7-10 days before further experimentation. Animals were divided into three groups. A control group of aged rats received daily infusions with 10 μM DEA-NONOate (SIGMA-ALDRICH®, St. Louis, Mo.) in sterile 0.9% saline. A second group received 100 μM 8-AG plus 10 μM DEA-NONOate in 0.9% saline, and a third group received 5 μM forodesine (SIGMA-ALDRICH®) plus 10 μM DEA-NONOate in 0.9% saline. Bladders were instilled via a catheter tether kit (Instech Laboratories) connected to a syringe pump for continuous infusion (rate 200 μl/min; 30 minutes/daily) for 3-6 weeks. The Institutional Animal Care and Use Committee approved all procedures. The investigation conforms to the Guide for the Care and Use of Laboratory Animals published by the US National Institutes of Health (NIH Publication No. 85-23, revised 1996).
Protocol 1: Young, aged, and 8-AG-treated aged rats were placed in metabolism cages for 24 hr once per week. The light cycle was from 7:00 AM to 7:00 PM, and food and water were provided ad libitum. Voided urine was collected in cups attached to force displacement transducers (GRASS TECHNOLOGIES®, Warwick, R.I.) that were connected to a computer running Windaq data acquisition software (DATAQ® Instruments I2nc., Akron, Ohio). Data were averaged for 24 h and analyzed for 12-h periods during the day (7:00 AM-7:00 PM) and night (7:00 PM-7:00 AM). Voiding frequency, total voided volume, and volume per void were analyzed. Voiding frequency was calculated as the number of voiding events per hour during 24 h and during the 12-h day and 12-h night periods. Volume per void, which defines bladder capacity, was calculated as an average of the voids occurring during these periods.
Voiding Analysis: Young, aged, and 8-AG-treated aged rats were placed in metabolic cages (24 hr; once per week) for the duration of the study. The light cycle was from 7:00 AM to 7:00 PM, and food and water were provided ad libitum. Voided urine was collected in cups attached to force displacement transducers (Grass Technologies, Warwick, R.I.) connected to a computer (Windaq data acquisition software DATAQ Instruments Inc., Akron, Ohio). Data were averaged for 24 h and analyzed for 12-h periods during the day (7:00 AM-7:00 PM) and night (7:00 PM-7:00 AM). Voiding frequency, total voided volume, and volume per void were analyzed. […]

Setting [3] is: aged Fischer 344 rats, oral 8-AG 5 mg/kg/day, 6 weeks.
[4] abbreviates: aged Fisher 344 rats, 8-AG 5 mg kg/day via drinking water, 1 month.

In the case of `Nc1nc2[nH]c(N)nc2c(=O)[nH]1` [8-AG, 8-Aminoguanine], in the assay with CYP-treated rats [1], the “abdominal mechanical pain threshold” value is recorded as “returned to near control levels”. For the same molecule, in the assay with CYP-treated rats [2], the intercontraction interval entry was “attenuates” and the voiding frequency result is “attenuates”. Further, in the assay with aged rats (setting [3]), the voided volume result is “attenuates” and the voiding frequency result was “attenuates”. In the assay on aged rats (setting [4]), the “bladder abnormalities (voided volume, voiding efficiency, voiding frequency)” value is recorded as “reversed”; the voided volume entry is on record as “attenuates”; the voiding frequency result is recorded as “attenuates”. For the same molecule, in the assay with aged rats (aged rats, intravesical 100 μM 8-AG plus 10 μM DEA-NONOate, daily infusion 3-6 weeks, vs control aged rats), the voiding frequency entry is given as “decreased; also recorded: attenuates”.
